From patent US8318938B2, “Trans-fused chromenoisoquinolines synthesis and methods for use” (Purdue Research Foundation, priority 2006, dated 2012)
Values joined by “and” are separate entries in the source; they are usually repeats but may differ in a detail not shown here. Equal values may be shown once. Where a name gives a salt, the structure may show the parent alone.

Assays:
α2C adrenergic receptor [1] = biological target: T1, α2C adrenergic receptor (Homo sapiens, UniProt P18825); assay: NIMH-sponsored Psychoactive Drug Screening Program affinity screen; type: binding; conditions: NIMH PDSP screen
T1 construct: expressed in transfected cells; host or cells: HEK293 (HEK-α2C)
T1 sequence (P18825 1-462): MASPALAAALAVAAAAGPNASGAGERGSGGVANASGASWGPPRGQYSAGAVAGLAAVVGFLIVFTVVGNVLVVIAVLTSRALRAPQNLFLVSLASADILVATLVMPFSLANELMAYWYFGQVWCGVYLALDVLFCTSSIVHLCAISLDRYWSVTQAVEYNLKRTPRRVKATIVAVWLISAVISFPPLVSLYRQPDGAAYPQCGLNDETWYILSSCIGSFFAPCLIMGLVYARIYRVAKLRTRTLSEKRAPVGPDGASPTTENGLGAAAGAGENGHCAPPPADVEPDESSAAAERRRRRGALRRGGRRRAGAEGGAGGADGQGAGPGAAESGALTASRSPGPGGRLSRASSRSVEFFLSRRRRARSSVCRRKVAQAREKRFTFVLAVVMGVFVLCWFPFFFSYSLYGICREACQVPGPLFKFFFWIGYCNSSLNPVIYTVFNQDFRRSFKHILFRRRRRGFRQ

[2] = biological target: endogenous human D1-like dopamine receptor in MCF7 cells (Homo sapiens, UniProt P21728); conditions: for Intrinsic Activity (% dopamine), Endogenous hD1: normalized to maximal cyclic AMP accumulation with dopamine (FIG. 3A)
endogenous human D1-like dopamine receptor in MCF7 cells, sequence (P21728 whole entry): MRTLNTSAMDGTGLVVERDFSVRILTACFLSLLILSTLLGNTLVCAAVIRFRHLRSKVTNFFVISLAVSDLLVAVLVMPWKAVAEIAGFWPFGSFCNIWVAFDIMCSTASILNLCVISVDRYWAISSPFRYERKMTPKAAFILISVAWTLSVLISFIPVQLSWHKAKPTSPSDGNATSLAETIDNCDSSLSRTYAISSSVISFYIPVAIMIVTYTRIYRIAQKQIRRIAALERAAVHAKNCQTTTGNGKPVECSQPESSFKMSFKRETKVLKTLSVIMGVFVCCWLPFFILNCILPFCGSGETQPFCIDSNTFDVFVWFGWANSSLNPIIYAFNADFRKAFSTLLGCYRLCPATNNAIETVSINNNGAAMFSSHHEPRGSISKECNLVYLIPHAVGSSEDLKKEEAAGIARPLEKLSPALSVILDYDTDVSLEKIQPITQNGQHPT
Method: The data presented in FIG. 2B are the mean±SEM of three independent experiments assayed in duplicate.
The data presented in FIGS. 3B-C are the mean±SEM of three independent experiments assayed in duplicate.
(§1) Cell Culture. […] Cells were grown at 37° C. in a humidified incubator with 6% CO2.
(§2) Cyclic AMP accumulation assay. Assays were performed on confluent monolayers of cells in 48-well plates. […] Cyclic AMP stimulation assays were performed on HEK D1-CRELuc or MCF7 cells by incubating the cells with ligands for 15 minutes at 37° C. Cyclic AMP inhibition assays were performed on HEK-α2C cells in the presence 30 μM forskolin to stimulate cyclic AMP formation. All assays were performed in the presence of 500 μM isobutylmethylxanthine (IBMX) and terminated with ice cold 3% trichloroacetic acid.
(§3) Cyclic AMP binding assay. […] Briefly, cellular lysate (15-20 μL) was added to cyclic AMP binding buffer (100 mM Tris-HCl, pH 7.4, 100 mM NaCl, 5 mM EDTA) in assay tubes containing 1 nM final concentration [^3H]cyclic AMP and bovine adrenal gland cyclic AMP binding protein (100-150 μg in 500 μl binding buffer). The binding assay was incubated on ice at 4° C. for 2-4 hours and terminated by harvesting with ice cold wash buffer (10 mM Tris, 0.9% NaCl) using a 96-well Packard Filtermate cell harvester and Millipore Multiscreen Harvest Plates (Millipore, Billerica, Mass., USA). Packard Microscint O (40 μL) was added to each well after drying. Radioactivity was counted using a Packard Topcount scintillation counter. Standard curves ranging from 0.01 to 300 pmol of cyclic AMP were used to determine the concentration of cyclic AMP in each sample. Data analysis was performed on GraphPad Prism software.

[3] = biological target: native D1-like dopamine receptors in porcine striatal tissue (Sus scrofa, UniProt P50130); assay: Porcine striatal cyclase assay (cyclic AMP stimulation in striatal homogenate); type: biochemical; conditions: read-out: intrinsic activity in porcine striatal tissue
native D1-like dopamine receptors in porcine striatal tissue, sequence (P50130 whole entry): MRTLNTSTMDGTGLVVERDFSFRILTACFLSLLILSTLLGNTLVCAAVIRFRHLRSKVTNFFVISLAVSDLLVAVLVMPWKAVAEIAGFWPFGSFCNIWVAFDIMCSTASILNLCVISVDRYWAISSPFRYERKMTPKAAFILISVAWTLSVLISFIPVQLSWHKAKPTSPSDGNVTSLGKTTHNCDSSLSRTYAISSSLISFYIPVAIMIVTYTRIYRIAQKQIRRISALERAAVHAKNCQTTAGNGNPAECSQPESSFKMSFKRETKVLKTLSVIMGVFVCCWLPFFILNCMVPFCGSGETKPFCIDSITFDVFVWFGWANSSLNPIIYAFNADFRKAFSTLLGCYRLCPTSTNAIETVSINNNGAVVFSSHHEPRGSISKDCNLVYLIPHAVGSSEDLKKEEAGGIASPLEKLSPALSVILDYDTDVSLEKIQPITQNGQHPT
Method: as §3
The homogenate was centrifuged at 1,000×g for 10 min at 4° C.

[4] = biological target: human dopamine D1 receptor (Homo sapiens, UniProt P21728); assay: Cyclic AMP accumulation in HEK cells stably expressing the human dopamine D1 receptor (cloned hD1); type: cell-based; conditions: normalized to maximal cyclic AMP accumulation with dopamine
human dopamine D1 receptor, sequence (P21728 whole entry): as the sequence (P21728 whole entry) above
Method: Cyclic AMP accumulation assay. Assays were performed on confluent monolayers of cells in 48-well plates. […] Cyclic AMP stimulation assays were performed on HEK D1-CRELuc or MCF7 cells by incubating the cells with ligands for 15 minutes at 37° C. […] All assays were performed in the presence of 500 μM isobutylmethylxanthine (IBMX) and terminated with ice cold 3% trichloroacetic acid.

α2C adrenergic receptor [5] = biological target: T1, α2C adrenergic receptor; assay: Inhibition of forskolin-stimulated cyclic AMP accumulation in HEK293 cells stably expressing the α2C receptor; type: cell-based; conditions: for EC50 / Intrinsic Activity (% forskolin), α2C Adrenergic: HEK-α2C cells; for EC50: 30 μM forskolin, 15 min at 37° C.; for Intrinsic Activity (% forskolin), α2C Adrenergic: inhibition of cyclic AMP stimulated by 30 μM forskolin
Description: The data presented have been normalized to the maximal cyclic AMP accumulation observed in the presence of forskolin alone and are the mean±SEM of three independent experiments assayed in duplicate.
Briefly, HEK D1-CreLuc cells were created by a two step process. HEK293 cells were co-transfected with the pBabe Puro and pGL-CreLuc vectors. Puromycin resistant clones, which expressed the functional cyclic AMP response element-linked luciferase reporter gene, were selected. Next, HEK-CreLuc cells were stably transfected with pcDNA3.1 (+)-D1. Clones were assayed for D1 receptor function by measuring cyclic AMP accumulation and luciferase activity. HEK-α2C cells were constructed by stable transfection with pcDNA.3(+)-α2C. G418 resistant clones were selected and assayed for α2C function by measuring inhibition of forskolin-stimulated cyclic AMP accumulation.
as §1, §2, §3

Compound: Cl.c1ccc2c(c1)CN[C@@H]1COc3cc4c(cc3[C@@H]21)OCO4
- melting point: 163 °C

Compound: Br.Cc1ccc2c(c1)C1c3cc(O)c(O)cc3OCC1NC2 (stereo not drawn)
- melting point: 195 to 200 °C (dec.)

Compound: Cl.c1ccc2c(c1)CN[C@H]1COc3cc4c(cc3[C@H]21)OCO4
- melting point: 163 °C

Compound: Cl.Oc1cc2c(cc1O)C1c3ccccc3CNC1CO2 (racemic) [(±)-ODHX, 2,3-Dihydroxy-6a,7,8,12b-tetrahydro-6H-chromeno[3,4-c]isoquinoline hydrochloride]
- Ki (α2C adrenergic receptor [1]): ~2 nM
- Intrinsic Activity (% dopamine), Endogenous hD1 [2]: 80 ± 3 % dopamine

Compound: O=C1N[C@@H]2COc3cc4c(cc3[C@H]2c2ccsc21)OCO4 (racemic) [Example 23, (±)-Trans-9,10-methylenedioxy-5,5a,6,11b-tetrahydro-4H-chromeno[3,4-b]thieno[3,2-d]pyridin-4-one]
- melting point: > 250 °C

Compound: Oc1cc2c(cc1O)[C@H]1c3ccccc3CN[C@@H]1CO2 [(+)-ODHX, (+)-(6aS,12bR)-2,3-Dihydroxy-6a,7,8,12b-tetrahydro-6H-chromeno[3,4-c]isoquinoline hydrochloride]
- Emax [3]: 115 ± 15%
- Intrinsic Activity (% dopamine), Endogenous hD1 [2]: 131 ± 13 % dopamine
- Intrinsic Activity (% dopamine), Cloned hD1 ([4]; hydrochloride): 109±6 % dopamine
- intrinsic activity as share of the intrinsic activity of (−)-ODHX at α2C receptor (α2C adrenergic receptor [5]): ca. 50%
- EC50 (α2C adrenergic receptor [5]): 151 ± 25 nM
- Intrinsic Activity (% forskolin), α2C Adrenergic (α2C adrenergic receptor [5]; hydrochloride): 34±6 % forskolin and 34 ± 7 % forskolin

Compound: Cl.Oc1cc2c(cc1O)[C@@H]1c3ccccc3CN[C@H]1CO2 [(−)-ODHX, (−)-(6aR,12bS)-2,3-Dihydroxy-6a,7,8,12b-tetrahydro-6H-chromeno[3,4-c]isoquinoline hydrochloride]
- effect alone on cyclic AMP levels ([2]; 10 μM alone): significant increase in cyclic AMP levels
- antagonism of dopamine- and (+)-ODHX-stimulated cyclic AMP accumulation ([2]; dose-response curves in presence of 10 μM (−)-ODHX (FIGS. 3B-C)): reduced the intrinsic activity and potency of both dopamine and (+)-ODHX
- Intrinsic Activity (% dopamine), Cloned hD1 [4]: 85 ± 6 % dopamine
- EC50 (α2C adrenergic receptor [5]): 4.4 nM
- Intrinsic Activity (% forskolin), α2C Adrenergic (α2C adrenergic receptor [5]): 69 ± 2 % forskolin

Compound: Clc1cccc(Cl)c1N=C1NCCN1 [Clonidine, reference compound]
- Intrinsic Activity (% forskolin), α2C Adrenergic (α2C adrenergic receptor [5]): 61 ± 5 % forskolin

Compound: C1=NC2COc3cc4c(cc3C2c2ccccc21)OCO4 (stereo not drawn) [Example 5, 2,3-Methylenedioxy-6a,12b-dihydro-6H-chromeno[3,4-c]isoquinoline]
- melting point: 191 °C

Compound: c1ccc2c(c1)CNC1COc3cc4c(cc3C21)OCO4 (stereo not drawn) [Example 6, 2,3-Methylenedioxy-6a,7,8,12b-tetrahydro-6H-chromeno[3,4-c]isoquinoline]
- melting point: 188 °C

Compound: Cc1ccc2c(c1)C1c3cc4c(cc3OCC1NC2=O)OCO4 (stereo not drawn) [Example 16, 2,3-methylenedioxy-11-methyl-6a,7-dihydro-6H-12bH-chromeno[3,4-c]isoquinolin-8-one]
- melting point: > 250 °C
